Results as given in ChEMBL document CHEMBL4842357, “Discovery of Novel Apigenin-Piperazine Hybrids as Potent and Selective Poly (ADP-Ribose) Polymerase-1 (PARP-1) Inhibitors for the Treatment of Cancer” (J Med Chem, 2021).
Activity calls are given as the source filed them. The rule behind the calls is not given here.

Legend:
[1] = target: T1, Poly [ADP-ribose] polymerase 1 (Homo sapiens, UniProt P09874); assay: Inhibition of recombinant human full-length PARP-1 using biotinylated substrate
[2] = Acute toxicity in ICR mouse assessed as change in body weight at 1000 mg/kg, po administered only once at day 1 and measured every two days for 14 days; format: organism-based; settings: in vivo, 336 h, time 14 day
[3] = Hepatotoxicity in ICR mouse assessed as effect on AST level at 1000 mg/kg, po administered only once at day 1 and measured every two days for 14 days (reference value: 61.5 +/- 3.7 U/L); format: toxicity, organism-based; settings: in vivo, 336 h, time 14 day
SK-OV-3 = assay: Cytotoxicity against human BRCA-1 deficient SK-OV-3 cells assessed as reduction in cell viability at 0.1 to 10 uM incubated for 48 hrs by MTT assay; format: functional, cell-based; settings: dose 0.1-10 µM
[4] = Acute toxicity in ICR mouse assessed as effect on kidney at 1000 mg/kg, po administered only once at day 1 and measured every two days for 14 days; format: organism-based; settings: in vivo, 336 h, time 14 day
[5] = Acute toxicity in ICR mouse assessed as change in blood routine at 1000 mg/kg, po administered only once at day 1 and measured every two days for 14 days; format: organism-based; settings: in vivo, 336 h, time 14 day
A549 [6] = assay: Cytotoxicity against human A549 cells assessed as induction of CBP cytotoxicity incubated for 48 hrs in presence of CBP by MTT assay; format: functional, cell-based; settings: dose 0.1-10 µM
[7] = target: T2, Poly [ADP-ribose] polymerase 2 (Homo sapiens, UniProt Q9UGN5); assay: Inhibition of recombinant human full-length PARP-2 using biotinylated substrate
T2 sequence (Q9UGN5 whole entry): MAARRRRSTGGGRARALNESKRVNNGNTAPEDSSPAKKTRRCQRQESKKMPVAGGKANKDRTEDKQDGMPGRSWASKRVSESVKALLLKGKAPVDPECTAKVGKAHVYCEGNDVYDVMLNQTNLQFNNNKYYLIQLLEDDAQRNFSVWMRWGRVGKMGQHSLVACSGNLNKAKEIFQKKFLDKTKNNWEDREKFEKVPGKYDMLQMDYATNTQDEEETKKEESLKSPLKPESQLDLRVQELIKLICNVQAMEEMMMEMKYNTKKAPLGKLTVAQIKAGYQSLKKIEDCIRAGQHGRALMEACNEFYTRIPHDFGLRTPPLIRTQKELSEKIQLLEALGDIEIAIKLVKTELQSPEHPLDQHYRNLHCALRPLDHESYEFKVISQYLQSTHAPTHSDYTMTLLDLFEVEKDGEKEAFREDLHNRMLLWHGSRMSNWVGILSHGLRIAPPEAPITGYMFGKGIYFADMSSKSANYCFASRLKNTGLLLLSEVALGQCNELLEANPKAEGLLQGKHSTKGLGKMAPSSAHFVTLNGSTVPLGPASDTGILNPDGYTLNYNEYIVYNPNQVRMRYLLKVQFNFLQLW

A549 [8] = assay: Cytotoxicity against human A549 cells assessed as reduction in cell viability at 0.1 to 10 uM incubated for 48 hrs by MTT assay; format: functional, cell-based; settings: dose 0.1-10 µM
[9] = Acute toxicity in ICR mouse assessed as effect on spleen at 1000 mg/kg, po administered only once at day 1 and measured every two days for 14 days; format: organism-based; settings: in vivo, 336 h, time 14 day
[10] = Hepatotoxicity in ICR mouse assessed as effect on ALT level at 1000 mg/kg, po administered only once at day 1 and measured every two days for 14 days (reference value: 28.6 +/- 6.9 U/L); format: toxicity, organism-based; settings: in vivo, 336 h, time 14 day
Homo sapiens = species: Homo sapiens; assay: Selectivity index, ratio of IC50 for inhibition of recombinant human full-length PARP-2 to IC50 for inhibition of recombinant human full-length PARP-1
[11] = Renal toxicity in ICR mouse assessed as effect on BUN level at 1000 mg/kg, po administered only once at day 1 and measured every two days for 14 days (reference value: 8.9 +/- 0.9 mmol/L); format: organism-based; settings: in vivo, 336 h, time 14 day
[12] = Stability in rat plasma assessed as compound remaining after 4 hrs; format: ADME, cell-free; settings: read-out: Stabilty
[13] = target: T1, Poly [ADP-ribose] polymerase 1; assay: Binding affinity to recombinant human PARP-1 by SPR analysis
CYP2C19 = CYP2C19 (Homo sapiens, UniProt P33261); assay: Inhibition of CYP2C19 (unknown origin) at 10 uM incubated for 10 to 30 mins in presence of NADPH regeneration system by microplate analysis relative to control; format: ADME; settings: time 10-30 min
CYP2C19, sequence (P33261 whole entry): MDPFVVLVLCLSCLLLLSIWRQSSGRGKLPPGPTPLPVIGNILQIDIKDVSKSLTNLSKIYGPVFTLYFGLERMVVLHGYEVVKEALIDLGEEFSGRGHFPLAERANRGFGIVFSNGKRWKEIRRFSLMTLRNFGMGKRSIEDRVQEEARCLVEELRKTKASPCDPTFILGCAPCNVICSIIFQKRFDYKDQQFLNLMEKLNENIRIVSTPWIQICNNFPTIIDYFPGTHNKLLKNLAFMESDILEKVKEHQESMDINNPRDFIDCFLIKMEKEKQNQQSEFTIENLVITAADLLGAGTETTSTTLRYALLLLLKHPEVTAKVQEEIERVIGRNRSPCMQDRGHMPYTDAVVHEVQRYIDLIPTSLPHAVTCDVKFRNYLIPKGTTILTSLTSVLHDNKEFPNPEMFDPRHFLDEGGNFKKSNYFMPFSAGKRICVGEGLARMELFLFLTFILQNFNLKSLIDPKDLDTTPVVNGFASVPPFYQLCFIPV

CYP3A4 = CYP3A4 (Homo sapiens, UniProt P08684); assay: Inhibition of CYP3A4 (unknown origin) at 10 uM incubated for 10 to 30 mins in presence of NADPH regeneration system by microplate analysis relative to control; format: ADME; settings: time 10-30 min
CYP3A4, sequence (P08684 whole entry): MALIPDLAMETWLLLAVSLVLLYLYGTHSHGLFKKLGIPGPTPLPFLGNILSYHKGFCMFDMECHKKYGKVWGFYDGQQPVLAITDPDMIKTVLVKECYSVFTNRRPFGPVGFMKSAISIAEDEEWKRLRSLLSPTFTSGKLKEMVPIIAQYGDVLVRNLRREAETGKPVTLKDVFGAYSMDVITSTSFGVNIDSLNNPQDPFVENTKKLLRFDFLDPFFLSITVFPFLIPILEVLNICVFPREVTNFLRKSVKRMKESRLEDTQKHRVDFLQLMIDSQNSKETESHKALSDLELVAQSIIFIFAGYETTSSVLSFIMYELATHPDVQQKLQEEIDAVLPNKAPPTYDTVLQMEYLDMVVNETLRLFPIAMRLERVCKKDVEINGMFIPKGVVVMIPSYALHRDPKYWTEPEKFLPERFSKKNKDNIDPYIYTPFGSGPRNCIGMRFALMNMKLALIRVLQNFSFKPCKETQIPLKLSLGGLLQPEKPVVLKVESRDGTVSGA

CYP2D6 = CYP2D6 (Homo sapiens, UniProt P10635); assay: Inhibition of CYP2D6 (unknown origin) at 10 uM incubated for 10 to 30 mins in presence of NADPH regeneration system by microplate analysis relative to control; format: ADME; settings: time 10-30 min
CYP2D6, sequence (P10635 whole entry): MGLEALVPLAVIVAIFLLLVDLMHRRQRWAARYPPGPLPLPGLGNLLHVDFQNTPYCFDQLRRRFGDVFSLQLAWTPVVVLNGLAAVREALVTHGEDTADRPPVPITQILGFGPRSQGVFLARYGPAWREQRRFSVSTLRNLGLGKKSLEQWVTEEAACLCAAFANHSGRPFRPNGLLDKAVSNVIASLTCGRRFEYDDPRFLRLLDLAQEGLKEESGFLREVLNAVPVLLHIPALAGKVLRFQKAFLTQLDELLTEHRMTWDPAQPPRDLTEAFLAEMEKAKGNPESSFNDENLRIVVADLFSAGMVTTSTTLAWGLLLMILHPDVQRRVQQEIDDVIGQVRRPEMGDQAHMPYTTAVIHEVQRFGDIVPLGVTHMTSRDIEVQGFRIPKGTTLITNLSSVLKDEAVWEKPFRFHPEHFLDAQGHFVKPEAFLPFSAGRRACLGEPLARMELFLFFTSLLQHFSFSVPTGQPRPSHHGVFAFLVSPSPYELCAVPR

CYP1A2 = target: T3, CYP1A2 (Homo sapiens, UniProt P05177); assay: Inhibition of CYP1A2 (unknown origin) at 10 uM incubated for 10 to 30 mins in presence of NADPH regeneration system by microplate analysis relative to control; format: ADME; settings: time 10-30 min
T3 sequence (P05177 whole entry): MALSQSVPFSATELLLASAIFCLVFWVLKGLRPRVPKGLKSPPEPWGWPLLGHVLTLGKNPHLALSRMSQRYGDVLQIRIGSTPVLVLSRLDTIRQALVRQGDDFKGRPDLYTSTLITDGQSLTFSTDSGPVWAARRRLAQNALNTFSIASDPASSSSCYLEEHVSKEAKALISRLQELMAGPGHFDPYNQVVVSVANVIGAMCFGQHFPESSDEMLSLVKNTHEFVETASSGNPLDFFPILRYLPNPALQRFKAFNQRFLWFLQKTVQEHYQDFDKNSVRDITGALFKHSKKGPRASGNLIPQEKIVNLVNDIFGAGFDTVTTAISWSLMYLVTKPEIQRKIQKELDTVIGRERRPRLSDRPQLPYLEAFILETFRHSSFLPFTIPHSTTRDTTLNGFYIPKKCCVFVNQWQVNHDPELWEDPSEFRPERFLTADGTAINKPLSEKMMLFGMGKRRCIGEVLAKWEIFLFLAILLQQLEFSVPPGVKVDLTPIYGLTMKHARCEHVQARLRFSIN

[14] = target: T2, Poly [ADP-ribose] polymerase 2; assay: Binding affinity to recombinant human PARP-2 by SPR analysis
[15] = Stability in rat plasma assessed as compound remaining after 0.5 hrs; format: ADME, cell-free; settings: read-out: Stabilty
CYP2C9 = CYP2C9 (Homo sapiens, UniProt P11712); assay: Inhibition of CYP2C9 (unknown origin) at 10 uM incubated for 10 to 30 mins in presence of NADPH regeneration system by microplate analysis relative to control; format: ADME; settings: time 10-30 min
CYP2C9, sequence (P11712 whole entry): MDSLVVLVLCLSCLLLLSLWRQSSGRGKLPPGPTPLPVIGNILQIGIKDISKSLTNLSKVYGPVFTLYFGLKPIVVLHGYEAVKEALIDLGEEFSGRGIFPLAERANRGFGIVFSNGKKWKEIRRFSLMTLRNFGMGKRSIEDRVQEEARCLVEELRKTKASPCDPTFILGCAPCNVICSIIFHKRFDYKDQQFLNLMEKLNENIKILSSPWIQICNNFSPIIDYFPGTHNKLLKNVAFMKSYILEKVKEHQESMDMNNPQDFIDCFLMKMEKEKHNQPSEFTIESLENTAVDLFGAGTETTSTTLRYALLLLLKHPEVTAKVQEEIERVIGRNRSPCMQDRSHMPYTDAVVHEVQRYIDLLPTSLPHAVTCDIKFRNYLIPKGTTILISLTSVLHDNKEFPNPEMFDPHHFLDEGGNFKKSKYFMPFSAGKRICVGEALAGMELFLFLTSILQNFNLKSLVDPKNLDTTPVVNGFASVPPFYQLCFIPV

T1 sequence (P09874 whole entry): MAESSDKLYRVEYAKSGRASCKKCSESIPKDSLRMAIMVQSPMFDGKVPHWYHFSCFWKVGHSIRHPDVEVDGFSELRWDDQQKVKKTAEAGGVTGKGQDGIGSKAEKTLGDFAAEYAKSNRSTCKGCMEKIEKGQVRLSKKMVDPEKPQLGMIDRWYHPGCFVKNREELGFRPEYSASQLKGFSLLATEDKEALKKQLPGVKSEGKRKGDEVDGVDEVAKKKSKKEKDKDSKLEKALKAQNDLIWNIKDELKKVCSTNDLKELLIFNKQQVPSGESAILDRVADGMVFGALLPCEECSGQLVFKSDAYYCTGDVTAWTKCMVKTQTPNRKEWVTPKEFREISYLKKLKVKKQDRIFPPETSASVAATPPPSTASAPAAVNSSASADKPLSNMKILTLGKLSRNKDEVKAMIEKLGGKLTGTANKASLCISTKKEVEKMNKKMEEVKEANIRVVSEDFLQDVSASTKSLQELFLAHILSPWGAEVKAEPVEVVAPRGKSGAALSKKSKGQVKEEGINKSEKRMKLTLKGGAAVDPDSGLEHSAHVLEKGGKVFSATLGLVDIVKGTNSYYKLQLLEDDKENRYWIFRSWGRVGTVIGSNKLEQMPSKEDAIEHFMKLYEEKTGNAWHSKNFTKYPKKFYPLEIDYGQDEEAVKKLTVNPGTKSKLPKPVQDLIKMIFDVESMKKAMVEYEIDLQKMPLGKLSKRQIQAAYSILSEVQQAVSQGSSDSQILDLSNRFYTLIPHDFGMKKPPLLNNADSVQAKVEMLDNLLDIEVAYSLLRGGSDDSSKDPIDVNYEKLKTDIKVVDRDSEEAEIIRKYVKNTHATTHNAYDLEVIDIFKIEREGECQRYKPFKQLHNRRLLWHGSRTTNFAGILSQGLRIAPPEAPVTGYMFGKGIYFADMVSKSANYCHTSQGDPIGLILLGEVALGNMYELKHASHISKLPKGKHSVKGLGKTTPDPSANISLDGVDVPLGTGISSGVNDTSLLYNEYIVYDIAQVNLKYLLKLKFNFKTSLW

Structure (SMILES)	IC50 [1]	Activity [2]	Activity [3]	Activity (SK-OV-3)	Activity [4]	Activity [5]	Activity (A549 [6])	IC50 [7]	Activity (A549 [8])	Activity [9]	Activity [10]	Ratio IC50 (Homo sapiens)	Activity [11]	also measured
O=C(c1cccs1)N1CCN(Cc2c(O)cc(O)c3c(=O)cc(-c4ccc(O)cc4)oc23)CC1	15.8 nM	Non-Toxic	77.6 U/L	Active	Toxic	Non-Toxic	Dose-Dependent Effect	1100 nM	inactive	Toxic	29.6 U/L	69.6	10.3 mmol/L	–
O=c1cc(-c2ccc(O)cc2)oc2c(CN3CCN(Cc4cccs4)CC3)c(O)cc(O)c12	14.7 nM	Non-Toxic	64.1 U/L	–	–	Non-Toxic	–	900 nM	–	–	27.6 U/L	–	9 mmol/L	remaining at 4 h [12]: 46.2%; Kd [13]: 55 nM; inhibition at 10 µM (CYP2C19): 70.4%; inhibition at 10 µM (CYP3A4): 93.4%; inhibition at 10 µM (CYP2D6): 92.7%; inhibition at 10 µM (CYP1A2): 85.2%; Kd [14]: 605 nM; remaining at 0.5 h [15]: 83.4%; inhibition at 10 µM (CYP2C9): 94.7%
O=C(c1ccco1)N1CCN(Cc2c(O)cc(O)c3c(=O)cc(-c4ccc(O)cc4)oc23)CC1	13.7 nM	Non-Toxic	79.3 U/L	Active	Toxic	Non-Toxic	Dose-Dependent Effect	800 nM	inactive	Toxic	31.2 U/L	68.3	9.1 mmol/L	–
